Measured values: patent publication US20020107401A1, “Production of phosphonopyrazoles” (MONSNTO TECHNOLOGY LLC., priority 2000, published 2002)

Test system: wheat variety 'OSLO'
Assay: Chemical hybridizing agent assay for male sterility (male gametocidal activity), foliar spray, seed counts
Format: in vivo
Experimental: The compounds of structure 3 and analogs are applied at a rate of 50-1000 μg/plant to cause pollen sterility. The male gametocidal activity is determined on the wheat variety ‘OSLO’, a double-dwarf hard red spring wheat. The wheat seed is planted to a depth of 0.5 to 1 inch (1-2.5 cm) in a 6-inch long (15 cm) conetainer (a cone shaped container, one seed per conetainer). The conetainers are filled with Metromix 200 potting soil supplemented with a slow release fertilizer, Osmocote and Sierra combined at 93 g/cu ft soil for a NPK of 31-20-24. Micromax with micronutrients is added at 17 g/cu ft rate. Fertilizer supplier is Hummerts, Earth City, Mo. 63045. The RLC-4 conetainers are 1×6 inch (2.5×15 cm) with a capacity of 4 cu in. (Stuewe & Sons, Inc., Corvallis, Oreg., 97333-9461). These are loaded into racks of 100 that occupy a 1.0 ft by 1.0 ft area. After seeding, the racks are placed in growth chambers with 14/10 hour day/night cycle at 18° C. These chambers are equipped with metal halide lamps that deliver approximately 300 μE/m^2/sec. Humidity is maintained at 50%, and plants are watered as needed. Approximately six weeks after seeding, wheat plants are selected for chemical application at or just prior to flag-leaf emergence from the boot (Feekes Scale 7.5-8.0) (Large, 1954. Plant Pathology 3:128-129). Plants are placed in a rack containing cardboard dividers to prevent each from being cross contaminated by an adjacent spray. The following procedures are used to evaluate the activity of the compounds of the invention for inducing male sterility in cereals. The plant heights vary and as uniformity is required for chemical application, the top 0-10 cm are removed by excision, such that the plant height is flush with the top of the divider. Prior to application, a 50 mL solution of DMSO (dimethylsulfoxide) containing the chemical hybridizing agent is diluted with 150 mL of water containing 1% SILWET L-77 surfactant (Witco Corp., Greenwich, Conn. 06831-2559) plus 2% humectant (glycerin, supplied by VWR Scientific Products Co.). The formulated chemicals are applied foliarly as an atomized spray onto the plants. After application, the plants are moved into growth chambers and allowed to grow until the heads emerge from the boot. Prior to anther extrusion (approximately 10 to 14 days after treatment), the plants are placed back into dividers in order to isolate the seed heads and to prevent cross-pollination. The plants are moved to a greenhouse, which has similar environmental conditions as the growth chambers. Approximately one week later (3 weeks after treatment (WAT) and at anther extrusion), open head morphology ratings are initiated. Plants are rated four times over a period of eight days (Table 2). The chemical hybridizing agent Genesis® (a registered Trade Mark of the Monsanto Co) is used as the positive control and for comparative purposes as to the rate of application and the efficacy as determined by percent sterility. The negative control is treatment of the wheat plants with the compounds making up the formulation of surfactant and humectant without the chemical compositions being assayed as chemical hybridizing agents. The data in Table 2 is expressed as % Sterility=(1-(Ave. normalized seed counts of sample/Ave. normalized seed counts of controls))*100 with the treatments comprising foliar application and rate titration at Feekes stage 8, across five replicates. Approximately two weeks after open head ratings are completed (six WAT), seed counts are collected.

[1] = Table 2, rate 50 μg/plant, foliar, Feekes 6
[2] = Table 2, rate 50 μg/plant, foliar, Feekes 8
[3] = Table 2, rate 125 μg/plant, foliar, Feekes 6
[4] = Table 2, rate 125 μg/plant, foliar, Feekes 8
[5] = Table 2, rate 250 μg/plant, foliar, Feekes 6
[6] = Table 2, rate 250 μg/plant, foliar, Feekes 8
[7] = Table 2, rate 500 μg/plant, foliar, Feekes 6
[8] = Table 2, rate 500 μg/plant, foliar, Feekes 8
[9] = Table 2, rate 1000 μg/plant, foliar, Feekes 8

| SMILES | Sterility (%) [1] | Sterility (%) [2] | Sterility (%) [3] | Sterility (%) [4] | Sterility (%) [5] | Sterility (%) [6] | Sterility (%) [7] | Sterility (%) [8] | Sterility (%) [9] | further results |
| --- | --- | --- | --- | --- | --- | --- | --- | --- | --- | --- |
| COP(=O)(OC)c1cnn(-c2ccc(Cl)cc2)c1O [Compound 3a, Dimethyl [1-(4-chlorophenyl)-5-hydroxy-1H-pyrazol-4-yl]phosphonate] | 27% | 39% | 0% | 34% | 0% | 79% | 49% | 92% |  |  |
| COP(=O)(OC)c1cnn(-c2ccc(F)cc2)c1O [Compound 3b, Dimethyl [1-(4-fluorophenyl)-5-hydroxy-1H-pyrazol-4-yl]phosphonate] |  | 23% |  | 30% |  | 90% |  | 91% | 98% |  |
| COP(=O)(OC)c1cnn(-c2ccccc2Cl)c1O [Compound 3c, Dimethyl [1-(2-chlorophenyl)-5-hydroxy-1H-pyrazol-4-yl]phosphonate] |  | 25% |  | 29% |  | 18% |  | 53% | 36% |  |
| COP(=O)(OC)c1cnn(-c2ccc(Br)cc2)c1O [Compound 3d, Dimethyl [1-(4-bromophenyl)-5-hydroxy-1H-pyrazol-4-yl]phosphonate] |  | 0% |  | 0% |  | 17% |  | 15% | 54% |  |
| COP(=O)(OC)c1cnn(C2CCCCC2)c1O [Compound 3e, Dimethyl [1-cyclohexyl-5-hydroxy-1H-pyrazol-4-yl]phosphonate] |  | 15% |  | 3% |  | 17% |  | 26% | 44% |  |
| O=P(O)(O)C1=CNN(c2ccc(Cl)cc2)C1O (centres unmarked) [Compound 3j, 2-(4-Chlorophenyl)-3-hydroxy-1H-pyrazol-4-yl phosphonic acid] | 4% | 31% | 7% | 13% | 0% | 0% | 35% | 12% |  |  |
| COP(=O)([O-])c1cnn(-c2cc(C)cc(C)c2)c1O.[K+] [Compound 3l, methyl potassium[2-(3,5-dimethylphenyl)-3-hydroxy-1H-pyrazol-4-yl]phosphonate] | 0% | 12% | 17% | 28% | 39% | 24% | 54% | 39% |  |  |
| Cc1cc(C)cc(-n2ncc(P(=O)([O-])O)c2O)c1.[K+] [Compound 3n, hydrogen potassium[2-(3,5-dimethylphenyl)-3-hydroxy-1H-pyrazol-4-yl]phosphonate] | 7% | 15% | 7% | 11% | 10% | 4% | 31% | 20% |  |  |
| COP(=O)(OC)c1cnn(-c2ccc(Cl)cc2)c1OCc1ccc(Cl)cc1 [Compound 4a, Dimethyl{1-(4-Chlorophenyl)-5-[(4-chlorobenzyl)oxy]-1H-pyrazol-4-yl}phosphonate] | 0% | 48% | 0% | 80% | 9% | 93% | 34% | 93% |  |  |
| COP(=O)(OC)c1cnn(-c2ccc(Cl)cc2)c1OCc1ccccc1[N+](=O)[O-] [Compound 4b, Dimethyl{1-(4-chlorophenyl)-5-[(2-nitrobenzyl)oxy]-1H-pyrazol-4-yl}phosphonate] | 0% | 16% | 0% | 0% | 0% | 57% | 0% | 94% |  |  |
| CCn1cc(P(=O)(OC)OC)c(=O)n1-c1ccc(Cl)cc1 [Compound 5a, Dimethyl [2-(4-chlorophenyl)-2,3-dihydro-1-ethyl-3-oxo-pyrazol-4-yl]phosphonate] |  |  |  |  |  |  |  |  |  | Sterility (%) (Table 4, rate 50 μg/plant): 11%; Sterility (%) (Table 4, rate 125 μg/plant): 26%; Sterility (%) (Table 4, rate 250 μg/plant): 66%; Sterility (%) (Table 4, rate 500 μg/plant): 29%; Sterility (%) (Table 4, rate 1000 μg/plant): 10% |
| COP(=O)(OC)c1cn(C2CCCCC2)n(-c2ccc(Cl)cc2)c1=O [Compound 5b, Dimethyl[2-(4-chlorophenyl)-1-cyclohexyl-2,3-dihydro-3-oxo-pyrazol-4-yl]phosphonate] |  |  |  |  |  |  |  |  |  | Sterility (%) (Table 4, rate 50 μg/plant): 0%; Sterility (%) (Table 4, rate 125 μg/plant): 14%; Sterility (%) (Table 4, rate 250 μg/plant): 20%; Sterility (%) (Table 4, rate 500 μg/plant): 23%; Sterility (%) (Table 4, rate 1000 μg/plant): 62% |
| CCn1cc(P(=O)(OC)OC)c(=O)n1-c1cc(C)cc(C)c1 [Compound 5c, Dimethyl[2-(3,5-dimethylphenyl)-2,3-dihydro-1-ethyl-3-oxo-pyrazol-4-yl]phosphonate] |  |  |  |  |  |  |  |  |  | Sterility (%) (Table 4, rate 50 μg/plant): 8%; Sterility (%) (Table 4, rate 125 μg/plant): 1%; Sterility (%) (Table 4, rate 250 μg/plant): 16%; Sterility (%) (Table 4, rate 500 μg/plant): 48%; Sterility (%) (Table 4, rate 1000 μg/plant): 31% |
| CCCCn1cc(P(=O)(OC)OC)c(=O)n1-c1cc(C)cc(C)c1 [Compound 5d, Dimethyl[1-butyl-2-(3,5-dimethylphenyl)-2,3-dihydro-3-oxo-pyrazol-4-yl]phosphonate] |  |  |  |  |  |  |  |  |  | Sterility (%) (Table 4, rate 50 μg/plant): 29%; Sterility (%) (Table 4, rate 125 μg/plant): 0%; Sterility (%) (Table 4, rate 250 μg/plant): 28%; Sterility (%) (Table 4, rate 500 μg/plant): 24%; Sterility (%) (Table 4, rate 1000 μg/plant): 41% |
| COP(=O)(OC)c1cn(-c2ccc(Br)cc2)nc1O [Compound 8a, Dimethyl [1-(4-bromophenyl)-3-hydroxy-1H-pyrazol-4-yl]phosphonate] |  |  |  |  |  |  |  |  |  | Sterility (%) (Table 3, rate 50 μg/plant): 12%; Sterility (%) (Table 3, rate 125 μg/plant): 0%; Sterility (%) (Table 3, rate 250 μg/plant): 44%; Sterility (%) (Table 3, rate 500 μg/plant): 25%; Sterility (%) (Table 3, rate 1000 μg/plant): 15% |
| COP(=O)(OC)c1c(-c2ccccc2)nn(-c2ccc(Cl)cc2)c1O [Compound 10a, Dimethyl [1-(4-chlorophenyl)-5-hydroxy-3-phenyl-1H-pyrazol-4-yl]phosphonate] |  | 1% |  | 0% |  | 27% |  | 18% | 45% |  |
